Target: T1, alpha syn aggregates (Homo sapiens, UniProt P37840)
T1 construct: expressed in transfected cells; host or cells: NLF cells, Tet-on inducible expression
Assay: Assay for Methamphetamine Addiction: alpha syn aggregates in NLF cells with or without amphetamine
Format: cell-based
Settings: FIG. 1
Text: FIG. 1 illustrates the average number of a syn aggregates per cell.
NLF cells were transfected with alpha synuclein behind a Tet-on promoter and induced to express alpha syn, resulting in the appearance of alpha syn aggregates. […] Aggregates were counted in ten randomly chosen fields and highest 3 in all conditions were quantified.

| Structure (SMILES) | amphetamine mediated increase of alpha syn aggregates (0.5 mM amphetamine and 1 μM of compound) | number of alpha syn aggregates (treatment with 1 μM of compound) | number of alpha syn aggregates (treatment with 0.5 mM amphetamine) |
| --- | --- | --- | --- |
| CN1CCN(c2ccc(-c3ccc(/C=C4\SC(=S)N(CCc5ccccc5)C4=O)o3)cc2)CC1 [Compound 13] | eliminated the amphetamine mediated increase of aggregates | reduced the number of aggregates | – |
| CC(N)Cc1ccccc1 (stereo not drawn) [amphetamine, reference compound] | – | – | increased the number of aggregates |
